In US9604987B2, “Synthesis of autophagy inducing compound and the uses thereof” (Hong Kong Baptist University, priority 2012, dated 2017):

What was measured:
[1] = tested on: Tg2567 APP mice; test: Tg2567 APP mice treated intraperitoneally; type: in vivo; conditions: 20 mg/kg/d intraperitoneally, three months
Experimental: N2a Swedish APP cells are incubated with different concentration of Cory and Cory B in the presence or absence of CQ and 3MA. […] Tg2567 APP mice, 3 months old JNPL P301 Tau mice and WT mice intraperitoneally are administrated with 20 mg/kg/d CoryB.

[2] = tested on: α-syn oligomers; test: BiFC-based cell model of α-syn oligomer clearance (flow cytometry); conditions: 25 μM, 24 hours
Experimental: Second, the effect of Cory B on α-syn oligomers clearance is tested using a bimolecular fluorescence complementation (BiFC)-based cell model which enables visualization of α-syn oligomers. Two non-fluorescent fragments of GFP, GFP-N terminal fraction and GFP-C terminal fraction, are fused with α-syn protein; interaction of the two fragments reconstitutes the fluorophore (FIG. 5G). The presence of fluorescence signal indicates the formation of α-syn oligomers within cells. Mock transfected cells are used as blanks to gate the fluorescence-positive cells and signals stronger than 10^1 RFU are considered as positive α-syn oligomers formation. Cells are treated with 25 μM Cory B and/or 5 mM 3-MA for 24 hours and harvested for flow cytometry analysis.

[3] = tested on: α-syn/synphilin-1 aggresomes in N2a cells; test: α-syn/synphilin-1 aggresome formation in N2a cells; type: cell-based, mouse; conditions: 25 μM, 48 hours
Experimental: α-syn and synphilin-1 are co-expressed in N2a cells to mimic aggresome formation and are treated with 25 μM Cory B or 5 mM 3-MA for 48 hours. Cells are fixed in 4% paraformaldehyde and analyzed under a fluorescence microscope. […] The inhibition of Cory B clearance of various forms of α-syn and α-syn/synphilin-1 aggresomes in the presence of 3-MA further validates that such clearance is via the autophagy pathway. Data are presented as the mean±SEM from 3 independent experiments (***p<0.001, one-way ANOVA for multiple comparison and Tukey's test as post hoc test).

[4] = tested on: α-syn (WT, A53T, A30P) in N2a cells; test: Clearance of over-expressed WT and mutant α-syn in N2a cells (western blot); type: cell-based, mouse
Experimental: Native and denatured PAGE and Western blotting analysis. Samples to be run under denaturing conditions were lysed with RIPA lysis buffer (150 mM NaCl, 50 mM Tris-HCl, 0.35% sodium deoxycholate, 1 mM EDTA, 1% NP40, 1 mM PMSF, 5 μg/ml aprotinin, 5 μg/ml leupeptin). Samples for native gels were lysed with detergent-free lysis buffer (50 mM Tris/HCl pH 7.4, 175 mM NaCl, 5 mM EDTA pH 8.0, 1 mM PMSF, 5 μg/ml aprotinin, 5 μg/ml leupeptin), and sheared 5 times through a 28-gauge needle followed by 2 times of sonication for 5 seconds according to previously described protocol. For denaturing, SDS-PAGE was performed using Tris-Glycine SDS running buffer and SDS sample buffer, and for native conditions, native-PAGE was run with detergent-free Tris-Glycine running buffer (BN2007, Invitrogen) and 4× native sample buffer (BN2003, Invitrogen) on a pre-casted native PAGE gel (BN1002BOX, Invitrogen). The proteins on the gels were then transferred to PVDF membrane (RPN303F, GE Healthcare) and processed for immunoblotting. Membranes were blocked with 5% non-fat milk and probed with the appropriate primary and secondary antibodies. The desired bands were visualized using the ECL kit (32106, Pierce). The band density was quantified using the ImageJ program and normalized to that of the control group.
N2a cells over-expressed in WT and α-syn mutants (A53T and A30P) and N2a cells with GFP as negative control are subjected to Cory B treatment for 24 hours. […] Data presents as the mean±SEM from 3 independent experiments (*p<0.05, one-way ANOVA for multiple comparison and Tukey's test as post hoc test).

[5] = tested on: mouse primary cortical neurons; test: Autophagy in primary mouse cortical neurons (LC3-II blot, GFP-LC3 puncta); type: cell-based, E17 embryonic ICR mice; conditions: 24 hours
Experimental: Primary neuron culture. The E17 embryonic pup brains were dissected and cortices were placed in a Petri dish containing ice cold EBSS, with meninges carefully removed. Tissues were digested in 5 ml of digestion solution (EBSS containing 0.5 mM EDTA (E6758, Sigma), 0.5 mg/ml Papain (3120, Worthington Biochem) and 4 mg/ml L-Cysteine (C7880, Sigma)) at 37° C. for 15 minutes. The tissue was sucked out in 1 ml of digestion solution and mixed with 3 ml of digestion inhibition solution (EBSS containing 5 mg/ml BSA (A2153, Sigma), 5 mg/ml Trypsin inhibitor (T9253, Sigma) and 10 μg/ml DNase (DN25, Sigma)). The mixed tissue solution was thoroughly mixed to dissociate the cells and then transferred to a 50 ml tube through a 70 μm filter. The cells were collected by centrifugation and re-suspended in seeding medium (DMEM containing 10% FBS and 10% horse serum). […]
To further confirm the pro-autophagic effect of Cory B on primary neurons, mouse primary cortical neurons isolated from E17 embryonic ICR mice are used in this study. […] Neurons are fixed in 4% paraformaldehyde and analyzed under a confocal microscope. GFP-LC3 puncta number in each GFP positive neuron is counted and at least 20 neurons in each group is counted. […]

[6] = tested on: Inducible PC12 cells; test: HMGB1 translocation and autophagy in alpha-synuclein inducible PC12 cells; type: cell-based, rat; conditions: α-syn overexpression induced by Dox, 24 h
Experimental: Inducible PC12 cells are treated with […] Dox for 24 h in the presence of Corynoxine B (Cory B), rapamycin (Rap), wortmannin (Wort) or chloroquine (CQ). The expressions of induced HA-α-syn, endogenous LC3-II and Beclin-1 are determined by Western blotting (FIG. 10A). The expression of HMGB1 in the cytosolic and nuclear fractions are determined by Western blotting (FIG. 10B). b-actin and Lamin B1 are used as relative loading controls. Data are presented as the mean±SD from three independent experiments. ^#p<0.05 vs. un-induced control; *p<0.05 vs. Dox treatment; **p<0.05 vs. Dox+Cory B treatment.

Compound: CC[C@@H]1CN2CC[C@]3(C(=O)Nc4ccccc43)C2C[C@@H]1C(=COC)C(=O)OC (stereo partly drawn) [Cory B, Corynoxine B]
- Fl-APP/CTF [1]: significantly decrease
- degradation of α-syn oligomers (fluorescence intensity) [2]: promotes degradation of α-syn oligomers
- number of α-syn/synphilin-1 aggresomes [3]: dramatically decreases the number of α-syn/synphilin-1 aggresomes
- α-syn pro-clearance activity under 3-MA and CQ ([4]; 5 mM 3-MA and 30 μM CQ): abolish pro-clearance activity
- WT and mutant α-syn levels ([4]; N2a over-expressing WT, A53T, A30P α-syn, 24 hours): reduces WT and mutant α-syn levels in a dose-dependent manner
- GFP levels (negative control protein) ([4]; N2a with GFP, 24 hours): does not reduce GFP levels
- LC3-II level ([5]; 0-50 μM): dose-dependent increase of LC3-II
- GFP puncta in neurons transfected with GFP-LC3 construct ([5]; 50 μM): induces massive formation of GFP puncta
- cytosolic translocation of HMGB1 and autophagy [6]: restored the deficient cytosolic translocation of HMGB1 and autophagy
